The record followed here is patent US8030298B2, “17β-HSD1 and STS inhibitors” (Abbott Products GmbH, priority 2005, dated 2011).

Molecules are shown by their SMILES.

This test addresses T1, recombinant human 17β-hydroxysteroid dehydrogenase type 1 (Homo sapiens, UniProt P14061).
T1 construct: made in house; host or cells: Sf9 insect cells (baculovirus, Bac to Bac Expression System)
T1 sequence (P14061 1-328): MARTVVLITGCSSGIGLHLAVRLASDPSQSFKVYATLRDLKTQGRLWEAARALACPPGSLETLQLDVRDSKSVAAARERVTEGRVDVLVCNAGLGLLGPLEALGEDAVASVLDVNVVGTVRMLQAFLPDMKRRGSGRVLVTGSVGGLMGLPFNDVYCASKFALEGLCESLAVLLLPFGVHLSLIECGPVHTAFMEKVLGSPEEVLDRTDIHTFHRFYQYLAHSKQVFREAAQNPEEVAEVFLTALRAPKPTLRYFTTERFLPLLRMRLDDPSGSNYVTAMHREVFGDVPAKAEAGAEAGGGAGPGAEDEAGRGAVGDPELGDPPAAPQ
Description: Inhibition of recombinant human 17β-hydroxysteroid dehydrogenase type 1 (3H-estrone to estradiol conversion, HPLC). The format is biochemical. Particulars: read-out: Inhibition of rec. 17β-HSD1 (% inhibition); for inhibition at 0.1 µM: inhibitor concentration 100 nM; for inhibition at 1 µM: 0.5 h, inhibitor concentration 1 μm. The procedure: 17β-HSD1 purification: Recombinant baculovirus was generated by the “Bac to Bac Expression System” (Invitrogen). Recombinant bacmid was transfected to Sf9 insect cells using “Cellfectin Reagent” (Invitrogen). 60 h later cells were harvested; the microsomal fraction was isolated as described by Puranen et al. (1994). Aliquots were stored frozen until determination of enzymatic activity.
Assay—Inhibition of recombinant human 17β-hydroxysteroid dehydrogenase type 1: Recombinant protein (0.1 μg/ml) was incubated in 20 mM KH2PO4 pH 7.4 with 30 nM 3H-estrone and 1 mM NADPH for 30 min at RT, in the presence of potential inhibitors at concentrations of 1 μM or 0.1 μM. Inhibitor stock solutions were prepared in DMSO. Final concentration of DMSO was adjusted to 1% in all samples. The enzyme reaction was stopped by addition of 10% trichloroacetic acid (final concentration). Samples were centrifuged in a microtiter plate at 4000 rpm for 10 min. Supernatants were applied to reverse phase HPLC on a Waters Symmetry C18 column, equipped with a Waters Sentry Guard column. Isocratic HPLC runs were performed at RT at a flow rate of 1 ml/min of acetonitrile:water 48:52 as running solvent. Radioactivity was monitored in the eluate by a Packard Flow Scintillation Analyzer. Total radioactivity for estrone and estradiol were determined in each sample and percent conversion of estrone to estradiol was calculated according to the following formula:
Percent inhibition was calculated as follows: % inhibition=100−% conversion

Regarding `C[C@]12CC[C@@H]3c4ccc(OCc5ccccc5)cc4CC[C@H]3[C@@H]1[C@H](C/C=C/C(=O)N1CCOCC1)c1cnoc12` [161′], the inhibition (commonly how much of the control response was suppressed) at 0.1 µM worked out at 21%.
In the case of `CCCc1cc2c(cc1O)CC[C@H]1[C@@H]3[C@H](CCCC(=O)NCc4ccc5c(c4)OCO5)CC(=O)[C@@]3(C)CC[C@H]21` [Compound 30], the inhibition at 0.1 µM worked out at 39.8%.
Regarding `CCCc1cc2c(cc1O)CC[C@H]1[C@@H]3[C@H](CCCC(=O)NCc4cccnc4)CC(=O)[C@@]3(C)CC[C@H]21` [Compound 32], the inhibition at 0.1 µM stood at 50%.
On to `CCCc1cc2c(cc1O)CC[C@H]1[C@@H]3[C@H](CCCC(=O)NCCc4c[nH]c5c(C)cccc45)CC(=O)[C@@]3(C)CC[C@H]21` [Compound 34], for which the inhibition at 0.1 µM was determined as 68.8%.
For the compound `CCCc1cc2c(cc1O)CC[C@H]1[C@@H]3[C@H](CCCC(=O)N4CCCCC4)CC(=O)[C@@]3(C)CC[C@H]21` [Compound 36], the inhibition at 0.1 µM was determined as 56.9%.
With `CCCc1cc2c(cc1O)CC[C@H]1[C@@H]3[C@H](CCCC(=O)N(C)Cc4ccccc4)CC(=O)[C@@]3(C)CC[C@H]21` [Compound 37], the inhibition at 0.1 µM came out at 64%.
In the case of `CCCc1cc2c(cc1O)CC[C@H]1[C@@H]3[C@H](CCCC(=O)N(C)CCc4ccc(OC)c(OC)c4)CC(=O)[C@@]3(C)CC[C@H]21` [Compound 38], the inhibition at 0.1 µM came to 51%.
Regarding `CCCc1cc2c(cc1O)CC[C@H]1[C@@H]3[C@H](CCCC(=O)Nc4ccc5cn[nH]c5c4)CC(=O)[C@@]3(C)CC[C@H]21` [Compound 40], the inhibition at 0.1 µM came to 72%.
As for `CCCc1cc2c(cc1O)CC[C@H]1[C@@H]3[C@H](CCCC(=O)NCCOC)CC(=O)[C@@]3(C)CC[C@H]21` [Compound 41], the inhibition at 0.1 µM turned out to be 25.9%.
In the case of `CCCc1cc2c(cc1O)CC[C@H]1[C@@H]3[C@H](CCCC(=O)NCc4ccc(F)cc4F)CC(=O)[C@@]3(C)CC[C@H]21` [Compound 42], the inhibition at 0.1 µM was 53.3%.
For `CCOc1cc2c(cc1O)CC[C@H]1[C@@H]3[C@@H](CCCC(=O)NC4CCCCC4)CC(=O)[C@@]3(C)CC[C@H]21` [Compound 44], the inhibition at 0.1 µM was determined as 55.5%.
Regarding `CCOc1cc2c(cc1O)CC[C@H]1[C@@H]3[C@@H](CCCC(=O)NCc4ccc5c(c4)OCO5)CC(=O)[C@@]3(C)CC[C@H]21` [Compound 45], the inhibition at 0.1 µM was 54%.
Regarding `CCOc1cc2c(cc1O)CC[C@H]1[C@@H]3[C@@H](CCCC(=O)NCCc4c[nH]c5c(C)cccc45)CC(=O)[C@@]3(C)CC[C@H]21` [Compound 52], the inhibition at 1 µM is 72.2% and the inhibition at 0.1 µM turned out to be 50%.
`CCOc1cc2c(cc1O)CC[C@H]1[C@@H]3[C@@H](CCCC(=O)N4CCCCC4)CC(=O)[C@@]3(C)CC[C@H]21` [Compound 55]: the inhibition at 1 µM turned out to be 71.9% and the inhibition at 0.1 µM worked out at 42.6%.
As for `CCOc1cc2c(cc1O)CC[C@H]1[C@@H]3[C@@H](CCCC(=O)Nc4ccc5cn[nH]c5c4)CC(=O)[C@@]3(C)CC[C@H]21` [Compound 59], the inhibition at 1 µM was 69.7% and the inhibition at 0.1 µM was 56.1%.
For `COc1cc2c(cc1O)CC[C@H]1[C@@H]3[C@@H](CCCC(=O)NC4CCCCC4)CC(=O)[C@@]3(C)CC[C@H]21` [Compound 67], the inhibition at 1 µM is 73.2% and the inhibition at 0.1 µM was 42.5%.
Take `COc1cc2c(cc1O)CC[C@H]1[C@@H]3[C@@H](CCCC(=O)NCc4ccccc4)CC(=O)[C@@]3(C)CC[C@H]21` [Compound 71]: the inhibition at 1 µM came to 70.6% and the inhibition at 0.1 µM is 45.8%.
Regarding `COc1cc2c(cc1O)CC[C@H]1[C@@H]3[C@@H](CCCC(=O)N4CCCCC4)CC(=O)[C@H]3CC[C@H]21` [Compound 78], the inhibition at 1 µM stood at 72% and the inhibition at 0.1 µM stood at 40.6%.
In the case of `COc1cc2c(cc1O)CC[C@H]1[C@@H]3[C@@H](CCCC(=O)Nc4ccc5cn[nH]c5c4)CC(=O)[C@@]3(C)CC[C@H]21` [Compound 83], the inhibition at 1 µM is 71.6% and the inhibition at 0.1 µM is 53.9%.
Take `C[C@]12CC[C@@H]3c4ccc(O)cc4CC[C@H]3[C@@H]1[C@@H](CCCC(=O)NC1CCCCC1)CC2(F)F` [Compound 102]: the inhibition at 1 µM is 70.6% and the inhibition at 0.1 µM amounted to 41.6%.
On to `C[C@]12CC[C@@H]3c4ccc(O)cc4CC[C@H]3[C@@H]1[C@@H](CCCC(=O)NCc1ccccc1)CC2(F)F` [Compound 106], for which the inhibition at 1 µM came out at 68% and the inhibition at 0.1 µM was found to be 36.7%.
As for `C[C@]12CC[C@@H]3c4ccc(O)cc4CC[C@H]3[C@@H]1[C@@H](CCCC(=O)NCc1ccc(O)c(O)c1)CC2(F)F` [Compound 109], the inhibition at 1 µM was 70.7% and the inhibition at 0.1 µM is 35.1%.
Taken in the same sequence, the figures for `Cc1cccc2c(CCNC(=O)CCC[C@H]3CC(F)(F)[C@@]4(C)CC[C@@H]5c6ccc(O)cc6CC[C@H]5[C@H]34)c[nH]c12` [Compound 111] were 68.3% and 50.6%.
In the case of `C[C@]12CC[C@@H]3c4ccc(O)cc4CC[C@H]3[C@@H]1[C@@H](CCCC(=O)N1CCCCC1)CC2(F)F` [Compound 113], the inhibition at 1 µM stood at 76.9% and the inhibition at 0.1 µM amounted to 47.2%.
Regarding `COc1ccc(CCN(C)C(=O)CCC[C@H]2CC(F)(F)[C@@]3(C)CC[C@@H]4c5ccc(O)cc5CC[C@H]4[C@H]23)cc1OC` [Compound 116], the inhibition at 0.1 µM turned out to be 49.3%.
Take `C[C@]12CC[C@@H]3c4ccc(O)cc4CC[C@H]3[C@@H]1[C@H](CCC(=O)NC1CC1)CC2(F)F` [Compound 120]: the inhibition at 0.1 µM is 37.3%.
Regarding `C[C@]12CC[C@@H]3c4ccc(O)cc4CC[C@H]3[C@@H]1[C@H](CCC(=O)NC1CCCCC1)CC2(F)F` [Compound 121], the inhibition at 0.1 µM was 63.6%.
Still for that read-out and setting: to `C[C@]12CC[C@@H]3c4ccc(O)cc4CC[C@H]3[C@@H]1[C@H](CCC(=O)NCc1ccc3c(c1)OCO3)CC2(F)F` [Compound 122] belongs 34%; to `C[C@]12CC[C@@H]3c4ccc(O)cc4CC[C@H]3[C@@H]1[C@H](CCC(=O)NCc1ccccc1)CC2(F)F` [Compound 125], 29.2%; to `C[C@]12CC[C@@H]3c4ccc(O)cc4CC[C@H]3[C@@H]1[C@H](CCC(=O)NCc1ccc(O)c(O)c1)CC2(F)F` [Compound 127], 21.1%.
Consider `COc1cc(CNC(=O)CC[C@@H]2CC(F)(F)[C@@]3(C)CC[C@@H]4c5ccc(O)cc5CC[C@H]4[C@H]23)cc(OC)c1` [Compound 128], for which the inhibition at 0.1 µM came to 21.2%.
For the compound `Cc1cccc2c(CCNC(=O)CC[C@@H]3CC(F)(F)[C@@]4(C)CC[C@@H]5c6ccc(O)cc6CC[C@H]5[C@H]34)c[nH]c12` [Compound 129], the inhibition at 0.1 µM came out at 33.1%.
As to `C[C@]12CC[C@@H]3c4ccc(O)cc4CC[C@H]3[C@@H]1[C@H](CCC(=O)N1CCCCC1)CC2(F)F` [Compound 131], the inhibition at 0.1 µM worked out at 19.8%.
In the case of `CCN(CC)C(=O)CC[C@@H]1CC(F)(F)[C@@]2(C)CC[C@@H]3c4ccc(O)cc4CC[C@H]3[C@H]12` [Compound 133], the inhibition at 0.1 µM came out at 71.4%.
Turning to `COc1ccc(CCN(C)C(=O)CC[C@@H]2CC(F)(F)[C@@]3(C)CC[C@@H]4c5ccc(O)cc5CC[C@H]4[C@H]23)cc1OC` [Compound 134], the inhibition at 0.1 µM came to 50.5%.
The same measure, in the same setting: to `CCCc1cc2c(cc1O)CC[C@H]1[C@@H]3[C@H](CCCC(=O)NCc4ccccc4)CC(=O)[C@@]3(C)CC[C@H]21` [Example 2, N-Benzyl-4-(3-hydroxy-17-oxo-2-propyl-estra-1,3,5(10)-trien-15β-yl)-butyramide] belongs 54.8%.
Turning to `COCCc1cc2c(cc1O)CC[C@H]1[C@@H]3[C@H](CCCC(=O)NCc4ccccc4)CC(=O)[C@@]3(C)CC[C@H]21` [Example 3, N-Benzyl-4-(3-hydroxy-2-(2-methoxy-ethyl)-17-oxo-estra-1,3,5(10)-trien-15β-yl)-butyramide], the inhibition at 0.1 µM turned out to be 19.6%.
